ChEMBL document CHEMBL4052696, “Varic acid analogues from fungus as PTP1B inhibitors: Biological evaluation and structure-activity relationships” (Bioorg Med Chem Lett, 2017)

Tests used:
[1] = target: Receptor-type tyrosine-protein phosphatase F (Homo sapiens, UniProt P10586); experiment: Inhibition of PTPLAR (unknown origin) using p-nitrophenyl phosphate substrate incubated for 30 mins
[2] = target: T1, Tyrosine-protein phosphatase non-receptor type 2 (Homo sapiens, UniProt P17706); experiment: Inhibition of TCPTP (unknown origin) using p-nitrophenyl phosphate substrate incubated for 30 mins
T1 sequence (P17706 whole entry): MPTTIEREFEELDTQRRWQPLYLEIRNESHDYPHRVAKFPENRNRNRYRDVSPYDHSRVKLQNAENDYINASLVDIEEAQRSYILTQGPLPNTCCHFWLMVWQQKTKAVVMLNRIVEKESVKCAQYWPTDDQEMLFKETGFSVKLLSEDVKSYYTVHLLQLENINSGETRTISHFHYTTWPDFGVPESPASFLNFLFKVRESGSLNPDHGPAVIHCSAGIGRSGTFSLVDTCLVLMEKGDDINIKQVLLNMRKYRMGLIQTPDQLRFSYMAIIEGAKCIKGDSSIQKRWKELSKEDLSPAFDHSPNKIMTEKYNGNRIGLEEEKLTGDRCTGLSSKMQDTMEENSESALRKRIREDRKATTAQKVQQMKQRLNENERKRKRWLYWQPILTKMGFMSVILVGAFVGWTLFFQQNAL

[3] = target: T2, Tyrosine-protein phosphatase non-receptor type 1 (Homo sapiens, UniProt P18031); experiment: Inhibition of PTP1B (unknown origin) using p-nitrophenyl phosphate substrate incubated for 30 mins
T2 sequence (P18031 whole entry): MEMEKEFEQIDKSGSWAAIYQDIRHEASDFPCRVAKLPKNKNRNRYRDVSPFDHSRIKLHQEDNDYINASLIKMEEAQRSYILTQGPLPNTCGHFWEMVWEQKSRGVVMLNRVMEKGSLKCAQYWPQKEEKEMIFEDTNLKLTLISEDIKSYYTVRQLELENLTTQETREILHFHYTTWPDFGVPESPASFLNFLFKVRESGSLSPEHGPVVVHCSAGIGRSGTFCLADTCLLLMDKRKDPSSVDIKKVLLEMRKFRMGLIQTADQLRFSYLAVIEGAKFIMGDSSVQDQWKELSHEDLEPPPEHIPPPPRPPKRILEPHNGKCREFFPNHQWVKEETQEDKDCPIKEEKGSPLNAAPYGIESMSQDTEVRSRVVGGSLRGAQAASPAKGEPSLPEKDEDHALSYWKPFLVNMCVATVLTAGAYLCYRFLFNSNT

[4] = target: T3, Tyrosine-protein phosphatase non-receptor type 11 (Homo sapiens, UniProt Q06124); experiment: Inhibition of SHP2 (unknown origin) using p-nitrophenyl phosphate substrate incubated for 30 mins
T3 sequence (Q06124 whole entry): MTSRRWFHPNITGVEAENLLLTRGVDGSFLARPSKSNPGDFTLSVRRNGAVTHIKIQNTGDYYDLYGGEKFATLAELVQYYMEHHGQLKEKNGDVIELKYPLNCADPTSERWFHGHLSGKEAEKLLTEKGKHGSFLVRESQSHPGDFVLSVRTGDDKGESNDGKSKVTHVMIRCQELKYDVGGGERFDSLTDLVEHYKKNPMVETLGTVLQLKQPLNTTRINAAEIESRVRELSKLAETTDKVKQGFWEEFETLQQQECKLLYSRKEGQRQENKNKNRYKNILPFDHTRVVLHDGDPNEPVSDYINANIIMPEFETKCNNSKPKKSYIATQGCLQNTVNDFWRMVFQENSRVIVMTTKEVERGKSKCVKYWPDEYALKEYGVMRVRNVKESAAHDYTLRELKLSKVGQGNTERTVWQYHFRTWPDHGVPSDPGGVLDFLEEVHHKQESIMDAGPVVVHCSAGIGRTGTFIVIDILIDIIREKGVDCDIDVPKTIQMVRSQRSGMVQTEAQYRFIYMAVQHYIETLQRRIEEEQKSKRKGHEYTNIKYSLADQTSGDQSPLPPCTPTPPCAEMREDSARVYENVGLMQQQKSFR

Rattus norvegicus [5] = experiment: Toxicity in type 2 diabetic Wistar rat assessed as induction of hypoglycemia at 10 mg/kg, ip dosed 30 mins before insulin injection and measured 30 mins post insulin injection by glucose-oxidase assay; assay type: organism-based; details: in vivo, 0.5 h
Rattus norvegicus [6] = experiment: Toxicity in normal Wistar rat assessed as induction of hypoglycemia at 10 mg/kg, ip dosed 30 mins before insulin injection and measured 30 mins post insulin injection by glucose-oxidase assay; assay type: organism-based; details: in vivo, 0.5 h

Receptor-type tyrosine-protein phosphatase F, sequence (P10586 whole entry): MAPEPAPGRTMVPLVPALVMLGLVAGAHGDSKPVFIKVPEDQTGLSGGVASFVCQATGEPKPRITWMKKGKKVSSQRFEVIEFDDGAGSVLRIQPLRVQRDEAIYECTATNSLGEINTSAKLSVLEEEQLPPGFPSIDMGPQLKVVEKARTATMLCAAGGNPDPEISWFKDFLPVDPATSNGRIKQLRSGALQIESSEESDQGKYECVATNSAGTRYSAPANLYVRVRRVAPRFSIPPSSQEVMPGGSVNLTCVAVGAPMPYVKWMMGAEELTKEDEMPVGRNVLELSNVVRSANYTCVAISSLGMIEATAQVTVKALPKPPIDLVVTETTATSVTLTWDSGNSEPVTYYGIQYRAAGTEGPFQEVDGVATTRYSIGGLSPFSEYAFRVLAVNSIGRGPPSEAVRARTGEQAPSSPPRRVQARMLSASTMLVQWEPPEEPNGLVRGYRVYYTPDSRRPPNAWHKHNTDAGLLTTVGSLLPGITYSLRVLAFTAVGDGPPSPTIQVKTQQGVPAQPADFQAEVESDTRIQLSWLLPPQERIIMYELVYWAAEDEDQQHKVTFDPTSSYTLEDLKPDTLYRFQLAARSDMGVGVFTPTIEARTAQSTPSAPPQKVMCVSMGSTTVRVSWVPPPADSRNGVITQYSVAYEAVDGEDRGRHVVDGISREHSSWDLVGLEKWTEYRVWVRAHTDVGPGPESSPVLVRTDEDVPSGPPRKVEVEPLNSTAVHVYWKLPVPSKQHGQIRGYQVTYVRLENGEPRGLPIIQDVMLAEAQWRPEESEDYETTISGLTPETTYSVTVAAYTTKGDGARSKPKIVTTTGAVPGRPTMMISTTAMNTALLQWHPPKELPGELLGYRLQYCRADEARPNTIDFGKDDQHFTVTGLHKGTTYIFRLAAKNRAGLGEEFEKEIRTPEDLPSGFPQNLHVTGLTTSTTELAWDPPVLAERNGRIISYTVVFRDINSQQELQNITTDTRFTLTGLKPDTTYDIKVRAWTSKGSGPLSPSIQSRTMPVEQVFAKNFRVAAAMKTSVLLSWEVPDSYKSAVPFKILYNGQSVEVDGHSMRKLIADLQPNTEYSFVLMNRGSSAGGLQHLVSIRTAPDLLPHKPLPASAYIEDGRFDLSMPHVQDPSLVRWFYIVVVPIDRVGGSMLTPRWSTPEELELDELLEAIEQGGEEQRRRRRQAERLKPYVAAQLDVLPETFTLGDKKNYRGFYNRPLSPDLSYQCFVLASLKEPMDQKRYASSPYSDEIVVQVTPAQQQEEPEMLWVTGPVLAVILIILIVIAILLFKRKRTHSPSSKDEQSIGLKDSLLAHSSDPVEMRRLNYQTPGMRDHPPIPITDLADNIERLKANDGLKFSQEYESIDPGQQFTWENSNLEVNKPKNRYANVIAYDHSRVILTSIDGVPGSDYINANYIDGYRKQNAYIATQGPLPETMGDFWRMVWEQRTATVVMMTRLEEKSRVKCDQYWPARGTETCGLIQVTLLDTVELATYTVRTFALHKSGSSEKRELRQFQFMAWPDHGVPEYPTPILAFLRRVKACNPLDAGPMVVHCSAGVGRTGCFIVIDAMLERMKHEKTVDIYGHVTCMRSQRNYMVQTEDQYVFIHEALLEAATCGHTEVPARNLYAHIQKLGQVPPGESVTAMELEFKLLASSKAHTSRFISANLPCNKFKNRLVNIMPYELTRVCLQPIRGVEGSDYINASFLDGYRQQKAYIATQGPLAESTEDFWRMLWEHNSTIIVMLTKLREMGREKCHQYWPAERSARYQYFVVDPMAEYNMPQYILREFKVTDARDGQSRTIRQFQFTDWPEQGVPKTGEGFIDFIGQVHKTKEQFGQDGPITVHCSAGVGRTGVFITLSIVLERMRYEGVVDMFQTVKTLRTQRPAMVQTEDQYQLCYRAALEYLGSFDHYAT

SMILES	IC50 [1] [µM]	IC50 [2] [µM]	IC50 [3] [µM]	IC50 [4] [µM]	Activity (Rattus norvegicus [5])	Activity (Rattus norvegicus [6])
CCCc1cc(O)cc(O)c1C(=O)O	> 20	> 20	1.58	12.6		
CCCc1cc(OC)cc(OC)c1C(=O)O	> 20	> 20	> 20	> 20		
CCC/C=C/C=C/CCc1cc(O)cc(O)c1C(=O)O	> 20	4.74	4.27	0.18		

Second part, led by results:

IC50 [1] [µM]	IC50 [2] [µM]	IC50 [3] [µM]	IC50 [4] [µM]	SMILES	Activity (Rattus norvegicus [5])	Activity (Rattus norvegicus [6])
> 20	> 20	0.72	15	CCCc1cc(O)cc(OC(=O)c2c(O)cc(O)cc2CCC)c1		
> 20	> 20	0.51	> 20	CCCc1cc(OC(=O)c2c(O)cc(O)cc2CCC)cc(O)c1C(=O)O		
> 20	17.7	0.17	2.73	CCCc1cc(OC(=O)c2c(O)cc(OC(=O)c3c(O)cc(O)cc3CCC)cc2CCC)cc(O)c1C(=O)O	Non-Toxic	Non-Toxic
